{"source": "patent US4927851A", "about": "“Analogs of mevalonolactone and derivatives thereof” (Sandoz Pharm. Corp., priority 1988, dated 1990)", "key": {"[1]": {"tested_on": "3β-hydroxysterol synthesis", "test": "Test B. In Vivo Cholesterol Biosynthesis Inhibition Test", "conditions": "Rattus norvegicus, po; rats, orally administered, 0.01-200 mg/kg body weight; read-out: ED50, dose producing a 50% inhibition of 3β-hydroxysterol synthesis", "experimental": "Test B. In Vivo Cholesterol Biosynthesis Inhibition Test:\nIn this test the rats are orally administered the test substance (compound of Formula I) at dose of 0.01-200 mg/kg. body weight. The obtained ED50 is the dose of the test substance observed or calculated to produce a 50% inhibition of 3β-hydroxysterol synthesis."}, "HMG-CoA reductase": {"biological_target": "T1, HMG-CoA reductase (Rattus norvegicus, UniProt P51639)", "T1 construct": "from tissue; host or cells: microsomes (printed); rat liver, Sprague-Dawley, by own knowledge of the cited method", "T1 sequence (P51639 1-887)": "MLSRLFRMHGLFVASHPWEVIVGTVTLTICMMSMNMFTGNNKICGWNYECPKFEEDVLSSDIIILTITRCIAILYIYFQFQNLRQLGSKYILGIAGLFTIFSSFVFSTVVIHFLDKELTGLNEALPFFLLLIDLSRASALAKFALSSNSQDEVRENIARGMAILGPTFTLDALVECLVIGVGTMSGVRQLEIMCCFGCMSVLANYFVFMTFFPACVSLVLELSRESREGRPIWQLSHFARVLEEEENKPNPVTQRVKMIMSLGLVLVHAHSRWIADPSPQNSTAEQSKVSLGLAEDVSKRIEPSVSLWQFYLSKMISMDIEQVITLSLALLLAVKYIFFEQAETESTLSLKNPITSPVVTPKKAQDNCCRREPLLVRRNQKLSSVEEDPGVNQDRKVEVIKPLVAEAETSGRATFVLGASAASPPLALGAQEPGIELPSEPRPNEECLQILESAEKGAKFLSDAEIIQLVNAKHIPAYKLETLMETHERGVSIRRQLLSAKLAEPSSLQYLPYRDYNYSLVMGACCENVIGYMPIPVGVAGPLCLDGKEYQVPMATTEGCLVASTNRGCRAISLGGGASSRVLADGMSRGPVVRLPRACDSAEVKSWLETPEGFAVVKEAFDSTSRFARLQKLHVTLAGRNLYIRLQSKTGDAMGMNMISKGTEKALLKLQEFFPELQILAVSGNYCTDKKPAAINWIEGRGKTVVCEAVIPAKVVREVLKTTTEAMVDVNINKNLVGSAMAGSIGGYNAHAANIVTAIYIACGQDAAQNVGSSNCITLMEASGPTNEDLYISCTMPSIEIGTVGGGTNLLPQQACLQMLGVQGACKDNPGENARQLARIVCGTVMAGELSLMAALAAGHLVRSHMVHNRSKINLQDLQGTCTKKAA", "test": "Test A. In Vitro Microsomal Assay of HMG-CoA Reductase Inhibition", "type": "biochemical", "conditions": "test substance 0.0005-2,000 μmolar, read-out: IC50, concentration producing a 50% inhibition of HMG-CoA reductase activity", "description": "Test A. In Vitro Microsomal Assay of HMG-CoA Reductase Inhibition:\nThis test is carried out precisely as described in column 53 of U.S. Pat. No. 4,613,610 and on page 30 of World (PCT) Published Patent Application No. 84/02131, both of which are hereby incorporated by reference as if set forth herein in their entirety. The concentration of the test substance (compound of Formula I) in the assay system is 0.0005-2,000 μmolar. The obtained IC50 is the concentration of the test substance in the assay system observed or calculated to produce a 50% inhibition of HMG-CoA reductase activity."}}, "note": "Structures can show the parent of a compound that is named as a salt."}
{"compound": "CC[C@H](C)C(=O)O[C@H]1CCC=C2C=C[C@H](C)[C@H](CC[C@@H]3C[C@@H](O)CC(=O)O3)[C@H]21", "note": "[Compactin, reference compound]", "values": [{"measurement": "ED50", "setting": "[1]", "result": 3.5, "unit": "mg/kg"}]}
{"compound": "CC(C)c1oc(-c2ccccc2)c(-c2ccc(F)cc2)c1/C=C/C(O)CC(O)CC(=O)O", "note": "(centres unmarked) [Example 5b]", "values": [{"measurement": "ED50", "setting": "[1]", "result": 0.35, "unit": "mg/kg"}, {"measurement": "IC50", "setting": "HMG-CoA reductase", "result": 190, "unit": "nM"}]}
{"compound": "CC(C)c1sc(-c2ccccc2)c(-c2ccccc2)c1/C=C/C(O)CC(O)CC(=O)O", "note": "(centres unmarked) [Example 5c, sodium(E)-7-(4-phenyl-2-isopropyl-5-phenylthien-3-yl)-3,5-dihydroxy-hept-6-enoate]", "values": [{"measurement": "ED50", "setting": "[1]", "result": 0.169, "unit": "mg/kg"}, {"measurement": "IC50", "setting": "HMG-CoA reductase", "result": 28, "unit": "nM"}]}
{"compound": "CC(C)c1sc(C(C)C)c(-c2ccc(F)cc2)c1/C=C/C(O)CC(O)CC(=O)O", "note": "(centres unmarked) [Example 8 (sodium salt)]", "values": [{"measurement": "ED50", "setting": "[1]", "result": 0.076, "unit": "mg/kg"}, {"measurement": "IC50", "setting": "HMG-CoA reductase", "result": 27, "unit": "nM"}]}
{"compound": "CC[C@H](C)C(=O)O[C@H]1C[C@@H](C)C=C2C=C[C@H](C)[C@H](CC[C@@H]3C[C@@H](O)CC(=O)O3)[C@H]21", "note": "[Mevinolin, reference compound]", "values": [{"measurement": "ED50", "setting": "[1]", "result": 0.41, "unit": "mg/kg"}]}
